Test results from PubChem BioAssay (NCI).
“And” between values parts separate entries of the source, which are not always exact repeats. Equal values may be shown once.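 Protocol summary: plate cells (96-well), add compound at 5 concentrations, incubate 48 h, interpolate endpoints linearly. GI50 is the concentration that inhibits growth by half. TGI: concentration producing complete growth inhibition.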

test system: MDA-MB-468 breast; experiment: DTP human tumour cell line panel, 48 h

**Q.** How did the GI50 turn out when `CN(C)CCCC1(c2ccc(F)cc2)OCc2cc(-c3cccc4[nH]ccc34)ccc21` (stereo unspecified) was run?
**A.** 1.79 µM

**Q.** What about the TGI of the same molecule?
**A.** 3.43 µM

**Q.** For `O=C1C=C[C@H](O)[C@@]2(CO)O[C@@H]12`, which GI50 is on record?
**A.** 4.61 µM

**Q.** And the TGI?
**A.** 20 µM

**Q.** `CCN1C(=S)N(CC)C2C1NC(=S)N2/N=C/C=C/c1ccccc1OC` (stereo unspecified) was tested. Which GI50 did it give?
**A.** 0.347 µM

**Q.** And the TGI?
**A.** 31.4 µM

**Q.** With `Cc1cccc(NC(=O)c2sc3nc4c(cc3c2N)C(=O)CCC4)c1` as the molecule, how does the GI50 read?
**A.** 0.0807 µM

**Q.** And the TGI?
**A.** 2.66 µM

**Q.** `CCN=c1sc2c(n1NC(=O)c1cc3ccc1CCc1ccc(cc1)CC3)C(=O)c1ccccc1C2=O` was tested. Which GI50 did it give?
**A.** 0.719 µM

**Q.** What about the TGI of the same molecule?
**A.** 1.83 µM

**Q.** For `O=C(Nc1cccc(-n2cc(-c3ccncc3)c(-c3cc(O)cc(Cl)c3)n2)c1)c1ccc(N2CCOCC2)c(C(F)(F)F)c1`, which GI50 is on record?
**A.** 3.42 µM

**Q.** And the TGI?
**A.** 43.3 µM

**Q.** `CCN1C(=O)N(CC)C2SC(N/N=C/c3ccc(OC)cc3)=NC21` (stereo unspecified) was tested. Which GI50 did it give?
**A.** 0.314 µM

**Q.** For `N#CC1c2ccccc2C=CN1C(=O)CCCl` (stereo unspecified), which GI50 is on record?
**A.** 2.1 µM

**Q.** And the TGI?
**A.** 5.74 µM

**Q.** For `COc1ccc(OC)c(/C=C/c2nc(=S)n(-c3ccc(Cl)cc3)[nH]2)c1`, which GI50 is on record?
**A.** 3.51 µM

**Q.** What about the TGI of the same molecule?
**A.** 55.4 µM

**Q.** How did the GI50 turn out when `Cn1nccc1Nc1nccc(-c2ccn([C@H](CO)c3ccc(Cl)c(F)c3)c(=O)c2)n1` was run?
**A.** 18.8 µM

**Q.** And the TGI?
**A.** 57.9 µM

**Q.** Which GI50 does the source give for `FC(F)(F)Oc1cccc(-c2cc(NCCCCCCNc3cc(-c4cccc(OC(F)(F)F)c4)nc4ccc(N5CCCC5)cc34)c3cc(N4CCCC4)ccc3n2)c1` here?
**A.** 1.59 µM

**Q.** And the TGI?
**A.** 3.21 µM

**Q.** Which GI50 does the source give for `Nc1ncnc2c1N=C(c1ccc3c(c1)OCO3)CC(c1ccc(Cl)cc1)N2` (stereo unspecified) here?
**A.** 10.1 µM

**Q.** And the TGI?
**A.** 54.9 µM

**Q.** `N#CC1(c2ccc(NC(=O)c3cccnc3NCc3ccncc3)cc2)CCCC1` was tested. Which GI50 did it give?
**A.** 7.04 µM

**Q.** What about the TGI of the same molecule?
**A.** 51.8 µM

**Q.** For `O=C1NC(=N[C@@H](CO)c2ccccc2)S/C1=C\c1ccc2ncccc2c1`, which GI50 is on record?
**A.** 5.78 µM

**Q.** What about the TGI of the same molecule?
**A.** > 25 µM

**Q.** With `CC1=C(C(=O)Nc2ccccc2)C(c2ccc(N(C)C)cc2)C(C(=O)Nc2ccccc2)=C(C)N1` as the molecule, how does the GI50 read?
**A.** 43.9 µM

**Q.** What about the TGI of the same molecule?
**A.** > 100 µM

**Q.** With `CCN(CC)CCCNc1ccc(C)c2sc3ccccc3c(=O)c12` as the molecule, how does the GI50 read?
**A.** 0.365 µM

**Q.** What about the TGI of the same molecule?
**A.** 1.27 µM

**Q.** What does the source list for `COc1cc2c(cc1Nc1nc(N3CCc4ccccc43)c3cc[nH]c3n1)N(C(=O)CN(C)C)CC2`?
**A.** GI50: 1.3 µM; TGI: 2.83 µM

**Q.** Which GI50 does the source give for `COc1ccc2c(c1)c(-c1nc(-c3c[nH]c4ncccc34)cs1)cn2CCCN1CCOCC1` here?
**A.** 2.52 µM

**Q.** And the TGI?
**A.** 5.25 µM

**Q.** What does the source list for `COc1ccc2sc3c(NCCCN)nc4ccccc4c3c(=O)c2c1`?
**A.** GI50: 1.56 µM; TGI: 3.19 µM

**Q.** How did the GI50 turn out when `COC(=O)OC1C(O[C@H]2C[C@H]3[C@@H]4CC=C5C[C@@H](O)CC[C@]5(C)[C@H]4CC[C@]3(C)[C@H]2[C@H](C)C(=O)CCC(C)C)OCC(O)C1OC1OCC(O)C(O)C1OC(=O)c1ccc(OC)cc1` (stereo partly specified) was run?
**A.** 0.111 µM

**Q.** And the TGI?
**A.** 1.7 µM

**Q.** For `Cc1ccc2c(-c3ccnc(Nc4ccc5c(c4)OCCO5)n3)c(-c3ccc(C(F)(F)F)cc3)nn2n1`, which GI50 is on record?
**A.** 5.19 µM

**Q.** What about the TGI of the same molecule?
**A.** > 25 µM

**Q.** Which GI50 does the source give for `Cn1c([N+](=O)[O-])cnc1C=C1C(=O)c2ccccc2C1=O` here?
**A.** 7.35 µM

**Q.** What about the TGI of the same molecule?
**A.** 33.1 µM

**Q.** With `Cc1nn(-c2ccc(Cl)cc2)c2ncnc(N/N=C/c3ccccc3O)c12` as the molecule, how does the GI50 read?
**A.** 1.71 µM and 1.03 µM

**Q.** And the TGI?
**A.** 6.46 µM and 7.68 µM

**Q.** Which results are given for `CC1(C)N=C(N)N=C(N)N1c1ccc(CCC(=O)Nc2ccc(S(=O)(=O)F)cc2)cc1`?
**A.** GI50: 1.01 µM; TGI: > 100 µM

**Q.** What does the source list for `CCn1cc(C(=O)O)c(=O)c2cc(F)c(N3CCN(S(=O)(=O)c4cccc5ccccc45)CC3)cc21`?
**A.** GI50: 2.52 µM; TGI: 7.32 µM

**Q.** Which results are given for `Cc1ccc(O)cc1Nc1ccnc2ccc(S(C)(=O)=O)cc12`?
**A.** GI50: 2.04 µM; TGI: 9.37 µM
